Among the data in patent publication EP0552417B1, “Cyclic peptides and use thereof” (priority 1991, dated 1993) are ring closure, yield after HPLC values, retold here.

Where two headings read alike, the source gives them in different places.

For this series the following is noted: amide bond, 18-membered ring, DMF, 4 steps.
Setting [1] is: HONB/DCC (preformed ONB ester), TEA, 5.0 mM.
Setting [2] is: HONB/DCC (preactivation), HCl/dioxane, TEA, 5.0 mM.

For “cyclo[-D-Asp-Hyp(Bzl)-Asp-D-Thg(2)-Leu-D-Trp-]”, under setting [1], the ring closure, yield after HPLC is 5.7%.

The substance “cyclo[-D-Asp-Orn(COCH2-Ind)-Asp-D-Leu-Leu-D-Trp-]” gave a ring closure, yield after HPLC (HONB/DCC (preformed ONB ester), TEA, 4.9 mM) of 12.5%.

As to “cyclo[-D-Asp-Orn(COCH2CH2Ph)-Asp-D-Leu-Leu-D-Trp-]”, where the note is “HONB/DCC (preformed ONB ester), TEA, 5.1 mM”, the ring closure, yield after HPLC was 40.9%.

Regarding “cyclo[-D-Asp-Orn(COCH2Ph)-Asp-D-Leu-Leu-D-Trp-]”, where the note is “HONB/DCC (preformed ONB ester), TEA, 4.7 mM”, the ring closure, yield after HPLC came to 2.9%.

“cyclo[-D-Asp-Orn(COPh)-Asp-D-Leu-Leu-D-Trp-]” showed a ring closure, yield after HPLC under setting [1] of 48.1%.

On to cyclo[-D-Asp-Pro-Asp-D-Leu-Leu-D-Trp-], for which, under “HONB ester (HONB/DCC preactivation)/TEA, 5.1 mM”, the ring closure, yield after HPLC amounted to 47.4%.

Under “HONB ester (HONB/DCC preactivation)/TEA, 5.0 mM”, cyclo[-D-Asp-Trp-Asp-D-Leu-Leu-D-Trp-] came in with a ring closure, yield after HPLC of 52.9%.

The substance “cyclo[-D-Asp-Trp-Asp-D-Thg(2)-Leu-D-Trp-]” displayed a ring closure, yield after HPLC (HONB/DCC (preactivation), HCl/dioxane, TEA, 5.1 mM) of 4.6%.

Under setting [2], cyclo[-D-Asp-Trp-Asp-D-tLeu-Leu-D-Trp-] returned a ring closure, yield after HPLC of 42.8%.

“cyclo[-D-Asp-Trp-Asp-D-γMeLeu-Leu-D-Trp-]”: the ring closure, yield after HPLC under setting [2] amounted to 51.5%.
